In patent US11345713B2, “Compounds as modulators of TLR2 signaling” (Neuropore Therapies, inc., priority 2018, dated 2022):

Tests used:
[1] = target: T1, human TLR2 (Pam2CSK4, TLR2/6 agonist) in HEK-Blue hTLR2 cells (Homo sapiens, UniProt O60603); assay: HEK-Blue hTLR2 antagonism assay (SEAP reporter) with Pam2CSK4 as agonist; type: cell-based; details: 2 h compound pre-incubation, approx. 3×EC50 Pam2CSK4, 18 h, SEAP OD 655 nm, background subtracted
T1 construct: host or cells: HEK-Blue hTLR2 (HEK-293)
T1 sequence (O60603 19-784 limits assumed): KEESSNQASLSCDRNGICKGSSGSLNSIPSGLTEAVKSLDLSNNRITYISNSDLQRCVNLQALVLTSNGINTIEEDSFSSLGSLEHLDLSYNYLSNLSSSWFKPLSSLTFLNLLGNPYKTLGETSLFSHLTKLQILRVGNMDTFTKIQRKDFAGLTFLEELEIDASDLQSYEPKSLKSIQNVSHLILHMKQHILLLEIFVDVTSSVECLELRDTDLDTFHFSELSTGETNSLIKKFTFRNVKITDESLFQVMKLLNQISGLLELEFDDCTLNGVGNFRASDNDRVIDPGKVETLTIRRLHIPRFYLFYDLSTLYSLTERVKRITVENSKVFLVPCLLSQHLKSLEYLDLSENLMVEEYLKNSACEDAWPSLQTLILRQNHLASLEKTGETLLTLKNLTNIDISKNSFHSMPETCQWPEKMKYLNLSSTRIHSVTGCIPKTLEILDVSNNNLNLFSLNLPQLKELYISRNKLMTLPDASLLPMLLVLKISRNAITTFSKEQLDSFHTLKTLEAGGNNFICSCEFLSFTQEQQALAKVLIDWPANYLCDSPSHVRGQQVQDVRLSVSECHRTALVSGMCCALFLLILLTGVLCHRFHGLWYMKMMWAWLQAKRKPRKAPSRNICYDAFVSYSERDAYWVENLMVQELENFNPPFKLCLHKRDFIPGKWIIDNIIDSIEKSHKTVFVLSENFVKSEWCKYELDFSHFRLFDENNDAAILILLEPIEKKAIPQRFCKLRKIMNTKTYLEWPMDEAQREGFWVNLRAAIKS
Description: (§1) Synthetic diacylated lipoprotein (Pam2CSK4, TLR2/6 agonist) and synthetic triacylated lipoprotein (Pam3CSK4, TLR1/2 agonist) were obtained from InvivoGen and were dissolved in endotoxin-free water to a concentration 1 mg/mL, vortexed until complete solubilization, and stored in aliquots at −20° C. Prior to addition to cells, an aliquot of the dissolved ligand was vortexed shortly and then was diluted in medium to 25 ng/mL Pam2CSK4 or 1000 ng/mL Pam3CSK4. The EC50 of the agonists for each assay run was determined by using 3-fold dilutions of each agonist from the following starting concentrations: 5 ng/mL for Pam2CSK4, and 200 ng/mL for Pam3CSK4.
(§2) Test compounds were solubilized fresh to 10-20 mM stocks in DMSO and sonicated for 5-10 minutes in a water bath sonicator. Serial dilutions were prepared in DMSO, and then diluted in medium. The final concentration of DMSO used in the assay was 1%.
(§3) HEK-Blue hTLR2 reporter cells (InvivoGen) are HEK-293 cells stably expressing both the human TLR2 gene and a secreted embryonic alkaline phosphatase (SEAP) reporter construct downstream of NFκB promotor sites. HEK-Blue hTLR2 reporters were cultured according to manufacturer's protocol using Dulbecco's Modified Eagle Medium (DMEM; Gibco) containing 1× GlutaMax (Gibco), 10% heat-inactivated Fetal Bovine Serum (Gibco), Pen-Strep (50 U/mL penicillin, 50 μg/mL streptomycin, Gibco), 100 μg/mL Normocin (InvivoGen), and the selective antibiotic, 1× HEK-Blue Selection (InvivoGen). Quanti-Blue reagent (InvivoGen) for detection and quantification of secreted alkaline phosphatase was dissolved in 100 mL of endotoxin-free water, warmed to 37° C. for 30 minutes and then filtered using a 0.2 μm membrane.
(§4) On day 1, 50 μL of each test compound dilution in duplicates or a vehicle control was added to each well of a 96-well plate followed by addition of 150 μL of HEK-Blue hTLR2 cell suspension (1×10^5 cells/well) and incubated at 37° C./5% CO2 for 2 h. Next, 50 μL of an approximate 3×EC50 concentration of each agonist (Pam2CSK4 or Pam3CSK4) was added to the wells containing test compounds or the vehicle control. The plates were then incubated at 37° C./5% CO2 for 18 h. For each assay run, non-treated HEK-Blue hTLR2 cells were treated with serial dilutions of agonists to determine EC50 values for the respective run.
(§5) On day 2, secreted alkaline phosphatase (SEAP) activity was detected in cell culture supernatants. In brief, 20 μL was collected from each well and transferred to a 96-well plate. Next, 200 μL of Quanti-Blue detection reagent was added to each well. Plates were incubated at room temperature for 15 min and SEAP activity was assessed by spectrophotometer OD reading at 655 nm. […] The activities of the compounds against Pam2CSK4 and Pam3CSK4 are presented as IC50 values for the response from cells treated with agonists with the background signal subtracted.

[2] = target: T2, human TLR2 (Pam3CSK4, TLR1/2 agonist) in HEK-Blue hTLR2 cells (Homo sapiens, UniProt O60603); assay: HEK-Blue hTLR2 antagonism assay (SEAP reporter) with Pam3CSK4 as agonist; type: cell-based; details: 2 h compound pre-incubation, approx. 3×EC50 Pam3CSK4, 18 h, SEAP OD 655 nm, background subtracted
T2 construct: host or cells: HEK-Blue hTLR2 (HEK-293)
T2 sequence (O60603 19-784 limits assumed): as above
Description: as §1, §2, §3, §4, §5

COc1cc(/C=C/c2ccc(C(F)(F)F)cc2)cc(C=O)c1O [compound 8, (E)-2-hydroxy-3-methoxy-5-(4-(trifluoromethyl)styryl)benzaldehyde]
IC50 [1]: 6.3 µM
IC50 [2]: 5.5 µM

O=Cc1cc(/C=C/c2cccc(C(F)(F)F)c2)cc(F)c1O [compound 11, (E)-3-fluoro-2-hydroxy-5-(3-(trifluoromethyl)styryl)benzaldehyde]
IC50 [1]: 1.1 µM
IC50 [2]: 1 µM

COc1cc(/C=C/C(=O)c2ccccc2)cc(C=O)c1O [compound 33, (E)-2-hydroxy-3-methoxy-5-(3-oxo-3-phenylprop-1-en-1-yl)benzaldehyde]
IC50 [1]: 6.2 µM
IC50 [2]: 6.4 µM

COc1cc(C=Cc2ccc3c(c2)OCCO3)cc(C=O)c1O [compound 38, 5-(2-(2,3-dihydrobenzo[b][1,4]dioxin-6-yl)vinyl)-2-hydroxy-3-methoxybenzaldehyde]
IC50 [1]: 4.4 µM
IC50 [2]: 5 µM

COc1cc(/C=C/c2ccc(N3CCCCC3)cc2)cc(C=O)c1O [compound 69, (E)-2-hydroxy-3-methoxy-5-(4-(piperidin-1-yl)styryl)benzaldehyde]
IC50 [1]: 0.7 µM
IC50 [2]: 0.6 µM

O=C(N/N=C/c1cc(/C=C/c2ccc(N3CCCC3)cc2)cc(F)c1O)c1ccccc1 [compound 80, N′-((E)-3-fluoro-2-hydroxy-5-((E)-4-(pyrrolidin-1-yl)styryl)benzylidene)benzohydrazide]
IC50 [1]: 28.4 µM
IC50 [2]: 14.8 µM

Oc1c(F)cc(/C=C/c2ccc(N3CCCC3)cc2)cc1/C=N/Oc1ccccc1 [compound 82, (E)-3-fluoro-2-hydroxy-5-((E)-4-(pyrrolidin-1-yl)styryl)benzaldehyde O-phenyl oxime]
IC50 [1]: 2.1 µM
IC50 [2]: 2.1 µM

O=Cc1cc(/C=C/c2ccc(OCC3CC3)cc2)cc(F)c1O [compound 66, (E)-5-(4-(cyclopropylmethoxy)styryl)-3-fluoro-2-hydroxybenzaldehyde]
IC50 [1]: 0.9 µM
IC50 [2]: 0.3 µM

CC(C)(C)OC(=O)N1CCN(/N=C/c2cc(/C=C/c3ccc(N4CCCC4)cc3)cc(F)c2O)CC1 [compound 95, tert-butyl 4-(((E)-3-fluoro-2-hydroxy-5-((E)-4-(pyrrolidin-1-yl)styryl)benzylidene)amino)piperazine-1-carboxylate]
IC50 [1]: 4.4 µM
IC50 [2]: 3.6 µM

O=Cc1cc(/C=C/c2ccccn2)cc(F)c1O [compound 28, (E)-3-fluoro-2-hydroxy-5-(2-(pyridin-2-yl)vinyl)benzaldehyde]
IC50 [1]: 19.5 µM
IC50 [2]: 29.4 µM

COc1cc(/C=C/c2ccncc2)cc(C=O)c1O [compound 25, (E)-2-hydroxy-3-methoxy-5-(2-(pyridin-4-yl)vinyl)benzaldehyde]
IC50 [1]: 15.2 µM
IC50 [2]: 16.4 µM

Cc1ccc(/C=C/c2ccc(O)c(C=O)c2)cn1 [compound 21, (E)-2-hydroxy-5-(2-(6-methylpyridin-3-yl)vinyl)benzaldehyde]
IC50 [1]: 40 µM
IC50 [2]: 57.3 µM

Oc1c(F)cc(/C=C/c2ccc(N3CCCC3)cc2)cc1CNC1CC1 [compound 91, (E)-2-((cyclopropylamino)methyl)-6-fluoro-4-(4-(pyrrolidin-1-yl)styryl)phenol]
IC50 [1]: 30.6 µM
IC50 [2]: 82.1 µM

O=Cc1cc(/C=C/c2cccc(N3CCCC3)c2)cc(F)c1O [compound 47, (E)-3-fluoro-2-hydroxy-5-(3-(pyrrolidin-1-yl)styryl)benzaldehyde]
IC50 [1]: 1.3 µM
IC50 [2]: 0.9 µM

COc1cc(/C=C/c2ccc3ncccc3c2)cc(C=O)c1O [compound 58, (E)-2-hydroxy-3-methoxy-5-(2-(quinolin-6-yl)vinyl)benzaldehyde]
IC50 [1]: 4.9 µM
IC50 [2]: 5 µM

O=Cc1cc(/C=C/c2ccc(N3CCCC3)cc2)cc(F)c1O [Example 49a, (E)-3-fluoro-2-hydroxy-5-(4-(pyrrolidin-1-yl)styryl)benzaldehyde]
IC50 [1]: 0.5 µM
IC50 [2]: 0.6 µM

COc1cc(/C=C/c2ccc(N3CCCC3)cc2)cc(C=O)c1O [compound 48, (E)-2-hydroxy-3-methoxy-5-(4-(pyrrolidin-1-yl)styryl)benzaldehyde]
IC50 [1]: 1 µM
IC50 [2]: 0.6 µM

CC(C)(C)OC(=O)N1CCC(/C=C/c2cc(F)c(O)c(C=O)c2)CC1 [compound 31, tert-butyl (E)-4-(3-fluoro-5-formyl-4-hydroxystyryl)piperidine-1-carboxylate]
IC50 [1]: 3.8 µM
IC50 [2]: 6 µM

Oc1c(F)cc(/C=C/c2ccc(N3CCCC3)cc2)cc1/C=N/N1CCOCC1 [compound 94, 2-fluoro-6-((E)-(morpholinoimino)methyl)-4-((E)-4-(pyrrolidin-1-yl)styryl)phenol]
IC50 [1]: 2.9 µM
IC50 [2]: 1.4 µM

CN1CCc2sc(-c3cc(F)c(O)c(C=O)c3)cc2C1 [compound 18, 3-fluoro-2-hydroxy-5-(5-methyl-4,5,6,7-tetrahydrothieno[3,2-c]pyridin-2-yl)benzaldehyde]
IC50 [1]: 10.4 µM
IC50 [2]: 12.2 µM

O=Cc1c(O)cc(/C=C/c2ccc(N3CCCCC3)cc2)cc1F [compound 71, (E)-2-fluoro-6-hydroxy-4-(4-(piperidin-1-yl)styryl)benzaldehyde]
IC50 [1]: 13.7 µM
IC50 [2]: 2.5 µM

O=Cc1cc(/C=C/c2ccc(-n3cccn3)cc2)cc(F)c1O [compound 57, (E)-5-(4-(1H-pyrazol-1-yl)styryl)-3-fluoro-2-hydroxybenzaldehyde]
IC50 [1]: 1.7 µM
IC50 [2]: 1.9 µM

O=Cc1cc(/C=C/c2ccc3c(c2)OCCO3)cc(F)c1O [compound 39, (E)-5-(2-(2,3-dihydrobenzo[b][1,4]dioxin-6-yl)vinyl)-3-fluoro-2-hydroxybenzaldehyde]
IC50 [1]: 12.8 µM
IC50 [2]: 15.4 µM

COc1cc(/C=C\c2ccc(N3CCOCC3)cc2)cc(C=O)c1O [compound 41, (Z)-2-hydroxy-3-methoxy-5-(4-morpholinostyryl)benzaldehyde]
IC50 [1]: 35.1 µM
IC50 [2]: 29.8 µM

COc1cc(-c2cc3c(s2)CCN(C(=O)C2CC2)C3)cc(/C=C/C(=O)c2ccccc2)c1O [compound 73, (E)-3-(5-(5-(cyclopropanecarbonyl)-4,5,6,7-tetrahydrothieno[3,2-c]pyridin-2-yl)-2-hydroxy-3-methoxyphenyl)-1-phenylprop-2-en-1-one]
IC50 [1]: 4.5 µM
IC50 [2]: 4.8 µM

COc1cc(/C=C/c2ccccc2)cc(C=O)c1O [compound 4, (E)-2-hydroxy-3-methoxy-5-styrylbenzaldehyde]
IC50 [1]: 5.5 µM
IC50 [2]: 4 µM

Oc1c(F)cc(/C=C/c2ccc(N3CCCC3)cc2)cc1/C=N/N1CCN(C2CC2)CC1 [compound 92, 2-((E)-((4-cyclopropylpiperazin-1-yl)imino)methyl)-6-fluoro-4-((E)-4-(pyrrolidin-1-yl)styryl)phenol]
IC50 [1]: 26.6 µM
IC50 [2]: 32.3 µM

O=Cc1cc(/C=C/c2ccc(N3CCCC3)nc2)cc(F)c1O [compound 86, (E)-3-fluoro-2-hydroxy-5-(2-(6-(pyrrolidin-1-yl)pyridin-3-yl)vinyl)benzaldehyde]
IC50 [1]: 3.8 µM
IC50 [2]: 4.1 µM

CN1CCCc2cc(/C=C/c3cc(F)c(O)c(C=O)c3)ccc21 [compound 62, (E)-3-fluoro-2-hydroxy-5-(2-(1-methyl-1,2,3,4-tetrahydroquinolin-6-yl)vinyl)benzaldehyde]
IC50 [1]: 1.5 µM
IC50 [2]: 0.8 µM

N=C(N)N/N=C/c1cc(/C=C/c2ccc(N3CCCC3)cc2)cc(F)c1O [compound 83, 2-((E)-3-fluoro-2-hydroxy-5-((E)-4-(pyrrolidin-1-yl)styryl)benzylidene)hydrazine-1-carboximidamide]
IC50 [1]: 36.7 µM
IC50 [2]: 88.9 µM

O=Cc1cc(/C=C\c2ccc(N3CCCC3)cc2)cc(F)c1O [compound 50, (Z)-3-fluoro-2-hydroxy-5-(4-(pyrrolidin-1-yl)styryl)benzaldehyde]
IC50 [1]: 10 µM
IC50 [2]: 6.7 µM
